Test results reported in PubChem BioAssay (NCI).
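The compound was tested at five concentrations on cells cultured in 96-well plates, with a 48-hour exposure period. TGI: total growth inhibition.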

Tests used:
Test in all cases: inhibition of tumour cell growth, NCI panel, 48 h
786-0 renal = test system: 786-0 renal
CCRF-CEM leukemia = test system: CCRF-CEM leukemia
COLO 205 colon = test system: COLO 205 colon
HCC-2998 colon = test system: HCC-2998 colon
HCT-15 colon = test system: HCT-15 colon
HOP-62 NSCLC = test system: HOP-62 NSCLC
HS 578T breast = test system: HS 578T breast
MALME-3M melanoma = test system: MALME-3M melanoma
MCF7 breast = test system: MCF7 breast
NCI-H226 lung = test system: NCI-H226 lung
NCI-H522 lung = test system: NCI-H522 lung
OVCAR-5 ovarian = test system: OVCAR-5 ovarian
OVCAR-8 ovarian = test system: OVCAR-8 ovarian
SF-295 CNS = test system: SF-295 CNS
SF-539 CNS = test system: SF-539 CNS
SNB-19 CNS = test system: SNB-19 CNS
SNB-75 CNS = test system: SNB-75 CNS
SR leukemia = test system: SR leukemia
UACC-62 melanoma = test system: UACC-62 melanoma
HL-60(TB) leukemia = test system: HL-60(TB) leukemia

| Compound | TGI (786-0 renal) [µM] | TGI (CCRF-CEM leukemia) [µM] | TGI (COLO 205 colon) [µM] | TGI (HCC-2998 colon) [µM] | TGI (HCT-15 colon) [µM] | TGI (HOP-62 NSCLC) [µM] | TGI (HS 578T breast) [µM] | TGI (MALME-3M melanoma) [µM] | TGI (MCF7 breast) [µM] | TGI (NCI-H226 lung) [µM] | TGI (NCI-H522 lung) [µM] | TGI (OVCAR-5 ovarian) [µM] | TGI (OVCAR-8 ovarian) [µM] | TGI (SF-295 CNS) [µM] | TGI (SF-539 CNS) [µM] | TGI (SNB-19 CNS) [µM] | TGI (SNB-75 CNS) [µM] | TGI (SR leukemia) [µM] | TGI (UACC-62 melanoma) [µM] | TGI (HL-60(TB) leukemia) [µM] |
| --- | --- | --- | --- | --- | --- | --- | --- | --- | --- | --- | --- | --- | --- | --- | --- | --- | --- | --- | --- | --- |
| O=[N+]([O-])/C(C(Cl)=C(Cl)Cl)=C(\N1CCCCC1)n1nnc2ccccc21 | 33.5 | 14.5 | 34.4 | 26.2 | 39.1 | 48.8 | 81.8 | 39.6 | > 69.4 | 42.6 | 40 | 36.9 | 42.6 | 33.3 | 33.6 | 40.3 | > 65.5 | 58.4 | 36.7 |  |
| Cc1ccc2oc3c(c(Br)c(Br)n3C)c(=O)c2c1 | 30.3 | > 100 | > 100 |  | > 100 | 33.3 | 65 | 70.5 | > 100 | 32.9 | > 100 | 99.7 | 31.9 | 47.2 | 37.3 | 36 |  |  | 52.3 | > 100 |
| O=C(Nc1sccc1S(=O)(=O)c1ccccc1)c1ccccc1 | > 100 |  | > 100 | > 100 | > 100 | > 100 | > 100 | > 100 | > 100 | > 100 | > 100 | > 100 | > 100 | > 100 | > 100 | > 100 | > 100 |  | > 100 |  |
| N#Cc1c(-c2ccc(Cl)cc2)c2c(N=Nc3c(O)ccc4ccccc34)[nH]nc2[nH]c1=O | 2.04 |  | 2.66 | 0.89 | 2.09 | 1.82 | 3.96 | 0.944 | 0.982 | 1.93 | 0.823 | 2.73 | 1.21 | 1.18 | 1.37 | 1.91 |  |  | 0.324 |  |
| O=C(NNS(=O)(=O)c1ccccc1)c1cccnc1 | > 100 | > 100 | > 100 | > 100 | > 100 | > 100 | > 100 | > 100 | > 100 | > 100 | > 100 | > 100 | > 100 | > 100 | > 100 | > 100 | > 100 |  | > 100 | > 100 |
| COC1CCC(=O)N1CN(C(C)=O)c1ccc(C)cc1 (stereo not given) | > 100 |  | > 100 | > 100 | > 100 | > 100 | > 100 |  | > 100 | > 100 |  | > 100 | > 100 | > 100 | > 100 | > 100 | > 100 | > 100 | > 100 |  |
| CC(=O)C(=[N+]=[N-])C(=O)N(C)CCC#N | > 10 | > 10 |  |  | > 10 | > 10 |  | > 10 | > 10 | > 10 |  | > 10 | > 10 | > 10 | > 10 | > 10 | 3.39 | > 10 | > 10 | > 10 |
| CCn1c(=O)c2nc(SC)sc2n(-c2ccccc2)c1=O | > 100 | > 100 | > 100 | > 100 | > 100 | > 100 |  | > 100 | > 100 | > 100 | > 100 | > 100 | > 100 | > 100 | > 100 | > 100 | > 100 | > 100 |  | > 100 |
| COc1nc2c(c(=O)n1C)N=C(c1ccc(Cl)cc1)CC(c1ccccc1)N2 (stereo not given) | > 100 | 69.3 | > 100 | 35.8 | 30.4 | > 100 |  |  | 28.8 | 45.6 | 44.9 | 78.7 | > 100 | 57.6 | 31.5 | > 100 | 46.7 | > 100 | 37.6 |  |
| COc1ccc(-n2c(=O)n(-c3ccccc3)c(=O)n2-c2ccc(OC)cc2)cc1 | > 100 | > 100 | > 100 | > 100 | > 100 | > 100 |  | > 100 | > 100 | > 100 | > 100 | > 100 | > 100 | > 100 | > 100 | > 100 | > 100 |  | > 100 | > 100 |
| NC(=O)c1c(NC=O)ncn1C1OCC(O)C(O)C1O (stereo not given) | > 100 | > 100 | > 100 |  | > 100 | > 100 | > 100 | > 100 |  | > 100 | > 100 | > 100 | > 100 | > 100 | > 100 | > 100 | > 100 | > 100 | > 100 | > 100 |
| C=CCCCCOC1C=CC(O)C(CO)O1 (stereo not given) | > 100 | > 100 | > 100 | > 100 | > 100 | > 100 | > 100 | > 100 | > 100 | > 100 | > 100 | > 100 | > 100 | > 100 | > 100 | > 100 |  |  | > 100 | > 100 |
| COc1ccc2c(c1)c(=O)c1c(NCCN(C)C)ccc3nnn2c31 | 14.8 | 10.3 | 10 | 17.8 | 16 | 15.4 |  | 17.2 |  | 9.44 | 15.8 | 19.6 | 13.6 | 13.9 | 15.9 | 19.7 | 20.7 | 2.9 | 17.8 | 5.51 |
| CCn1c2ccccc2c2ccc(C3C(C(=O)OC)=C(C)NC(C)=C3C(=O)OC)cc21 | > 100 | > 100 | > 100 | > 100 | > 100 | > 100 |  | 60.1 | > 100 | > 100 |  | > 100 | > 100 | > 100 | > 100 | > 100 | > 100 | > 100 | > 100 | > 100 |
